In US10689430B2, “Insulin receptor partial agonists” (Merck Sharp & Dohme Corp., priority 2016, dated 2020) one finds IC50 data, which are given here for 1 substance.

This experiment addresses T1, human IR(B) (Homo sapiens, UniProt P06213).
T1 construct: expressed in transfected cells; host or cells: CHO cells (membrane preparation)
As to the kind of experiment: Insulin receptor binding assay (SPA, 125[I]-insulin competition). The note with it: cell membranes from CHO cells overexpressing human IR(B). As for the experimental part:
Cell membranes were prepared in 50 mM Tris buffer, pH 7.8 containing 5 mM MgCl2.

T1 sequence (P06213 28-758 limits assumed): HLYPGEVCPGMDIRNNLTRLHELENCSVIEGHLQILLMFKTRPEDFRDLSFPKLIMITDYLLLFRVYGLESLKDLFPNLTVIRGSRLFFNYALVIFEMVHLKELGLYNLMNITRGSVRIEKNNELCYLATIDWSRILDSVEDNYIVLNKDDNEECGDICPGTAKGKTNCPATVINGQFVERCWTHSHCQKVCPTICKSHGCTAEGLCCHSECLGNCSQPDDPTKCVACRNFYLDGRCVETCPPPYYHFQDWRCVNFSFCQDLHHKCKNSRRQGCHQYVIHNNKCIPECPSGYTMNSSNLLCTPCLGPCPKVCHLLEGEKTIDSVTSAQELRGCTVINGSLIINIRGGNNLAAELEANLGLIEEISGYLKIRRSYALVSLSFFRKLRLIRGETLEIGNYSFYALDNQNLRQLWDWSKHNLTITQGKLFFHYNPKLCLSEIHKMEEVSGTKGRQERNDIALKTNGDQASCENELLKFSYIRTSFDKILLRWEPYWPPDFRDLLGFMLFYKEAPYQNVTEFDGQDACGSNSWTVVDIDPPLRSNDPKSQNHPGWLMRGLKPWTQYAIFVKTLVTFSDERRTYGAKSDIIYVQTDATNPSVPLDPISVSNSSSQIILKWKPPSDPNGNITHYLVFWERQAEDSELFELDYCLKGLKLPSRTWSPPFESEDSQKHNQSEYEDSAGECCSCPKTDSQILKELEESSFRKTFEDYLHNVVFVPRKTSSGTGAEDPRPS
T1 sequence (P06213 763-1382 partner limits assumed): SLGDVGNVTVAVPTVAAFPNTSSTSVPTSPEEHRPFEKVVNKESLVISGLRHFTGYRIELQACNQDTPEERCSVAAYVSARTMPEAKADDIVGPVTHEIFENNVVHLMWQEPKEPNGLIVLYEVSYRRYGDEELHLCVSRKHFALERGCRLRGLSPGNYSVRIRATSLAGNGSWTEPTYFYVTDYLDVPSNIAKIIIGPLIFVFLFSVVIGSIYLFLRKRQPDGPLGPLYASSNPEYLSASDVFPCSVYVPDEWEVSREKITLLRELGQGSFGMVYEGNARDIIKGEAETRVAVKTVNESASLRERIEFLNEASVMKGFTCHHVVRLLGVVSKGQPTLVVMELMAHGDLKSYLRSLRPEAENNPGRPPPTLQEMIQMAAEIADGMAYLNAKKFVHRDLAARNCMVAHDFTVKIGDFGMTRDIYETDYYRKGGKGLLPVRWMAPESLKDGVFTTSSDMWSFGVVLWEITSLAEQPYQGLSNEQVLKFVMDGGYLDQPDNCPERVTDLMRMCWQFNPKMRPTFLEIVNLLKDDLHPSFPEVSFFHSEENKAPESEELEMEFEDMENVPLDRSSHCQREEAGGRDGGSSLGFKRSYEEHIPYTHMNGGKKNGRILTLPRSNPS

The term IC50 denotes the concentration that inhibits the measured activity by half. Consider “N^6,B29, N^6,B29′-(C3-tartaric acid-C3)insulin human [Dimer 85]”, for which the IC50 turned out to be 1.8 nM.
